Values after ≈ are worked out from the molar mass of the structure shown. Active and inactive are the calls of the source. No cut-off for these calls is given here.
Legend:
Staphylococcus aureus [1] = test: Antibacterial activity against Staphylococcus aureus ATCC 25923 by micro dilution method; type: functional
Escherichia coli [2] = test: Antibacterial activity against Escherichia coli ATCC 25922 by micro dilution method; type: functional
Staphylococcus aureus [3] = test: Antibacterial activity against Staphylococcus aureus isolate 3797 by micro dilution method; type: functional
Enterococcus gallinarum = test: Antibacterial activity against Streptococcus gallinarum ATCC 35038 by micro dilution method; type: functional
Salmonella typhimurium = test: Antibacterial activity against Salmonella choleraesuis ATCC 14028 by micro dilution method; type: functional, Salmonella enterica subsp. enterica serovar Typhimurium; conditions: Salmonella enterica
Enterococcus faecalis = test: Antibacterial activity against Enterococcus faecalis isolate 560 by micro dilution method; type: functional
Staphylococcus aureus [4] = test: Antibacterial activity against Staphylococcus aureus isolate 10 by micro dilution method; type: functional
[5] = test system: Staphylococcus epidermidis; test: Antibacterial activity against Staphylococcus epidermidis isolate 533 by micro dilution method; type: functional
Enterococcus faecium [6] = test: Antibacterial activity against Enterococcus faecium isolate 568 by micro dilution method; type: functional
Staphylococcus aureus [7] = test: Antibacterial activity against Staphylococcus aureus isolate 1025 by micro dilution method; type: functional
Enterococcus faecium [8] = test: Antibacterial activity against Enterococcus faecium isolate 569 by micro dilution method; type: functional
Klebsiella pneumoniae = test: Antibacterial activity against Klebsiella pneumoniae ATCC 13883 by micro dilution method; type: functional
Staphylococcus aureus [9] = test: Antibacterial activity against Staphylococcus aureus isolate 3798 by micro dilution method; type: functional
Streptococcus pneumoniae = test: Antibacterial activity against Streptococcus pneumoniae ATCC 49619 by micro dilution method; type: functional
Escherichia coli [10] = test: Induction of translation arrest in tolC-deficient Escherichia coli harboring pRFPCER-TrpL2A assessed as increase in pRFPCER-TrpL2A reporter activity at 10 mg/ml after overnight incubation by dual fluorescent-reporter gene assay; type: functional, organism-based
Streptococcus agalactiae = test: Antibacterial activity against Streptococcus agalactiae isolate 52 by micro dilution method; type: functional
Staphylococcus aureus [11] = test: Antibacterial activity against Staphylococcus aureus isolate 10 infected in C57BL/6 mouse assessed as survival rate at 4.5 mg/kg, iv measured for 10 days (reference value: 0%); type: functional; conditions: isolate 10, iv, 240 h
Staphylococcus aureus [12] = test: Antibacterial activity against Staphylococcus aureus isolate 10 infected in C57BL/6 mouse assessed as survival rate at 2.5 mg/kg, iv measured for 10 days (reference value: 0%); type: functional; conditions: isolate 10, iv, 240 h
Staphylococcus aureus [13] = test: Antibacterial activity against Staphylococcus aureus isolate 10 infected in C57BL/6 mouse assessed as survival rate at 5.5 mg/kg, iv measured for 10 days (reference value: 0%); type: functional; conditions: isolate 10, iv, 240 h
Staphylococcus aureus [14] = test: Antibacterial activity against Staphylococcus aureus isolate 10 infected in iv dosed C57BL/6 mouse measured for 10 days; type: functional; conditions: isolate 10, iv, 240 h
Staphylococcus aureus [15] = test: Antibacterial activity against Staphylococcus aureus isolate 10 infected in C57BL/6 mouse assessed as survival rate at 7.5 mg/kg, iv measured for 10 days (reference value: 0%); type: functional; conditions: isolate 10, iv, 240 h
[16] = Elimination half life in patient with normal creatinine clearance; type: ADME; conditions: human, in vivo; read-out: beta t1/2
Staphylococcus aureus [17] = test: Antibacterial activity against Staphylococcus aureus isolate 10 infected in C57BL/6 mouse assessed as survival rate at 3.5 mg/kg, iv measured for 10 days (reference value: 0%); type: functional; conditions: isolate 10, iv, 240 h
Staphylococcus aureus [18] = test: Antibacterial activity against Staphylococcus aureus isolate 10 infected in C57BL/6 mouse assessed as survival rate at 6.5 mg/kg, iv measured for 10 days (reference value: 0%); type: functional; conditions: isolate 10, iv, 240 h

For `CC[C@H]1OC(=O)[C@H](C)[C@@H](O[C@H]2C[C@@](C)(OC)[C@@H](OC(=O)NCCCNC(=O)[C@H]3NC(=O)[C@H]4NC(=O)[C@H](NC(=O)[C@@H]5NC(=O)[C@H](CC(N)=O)NC(=O)[C@H](NC(=O)[C@@H](CC(C)C)NC)[C@H](O)c6ccc(c(Cl)c6)Oc6cc5cc(c6O[C@@H]5O[C@H](CO)[C@@H](O)[C@H](O)[C@H]5O[C@H]5C[C@](C)(N)[C@H](O)[C@H](C)O5)Oc5ccc(cc5Cl)[C@H]4O[C@H]4C[C@](C)(N)[C@@H](O)[C@H](C)O4)c4ccc(O)c(c4)-c4c(O)cc(O)cc43)[C@H](C)O2)[C@H](C)[C@@H](O[C@@H]2O[C@H](C)C[C@H](N(C)C)[C@H]2O)[C@](C)(O)C[C@@H](C)CN(C)[C@H](C)[C@H]2OC(=O)O[C@]21C`, the MIC (Staphylococcus aureus [1]) was 1 µg/mL (≈ 0.408 µM), the MIC (Escherichia coli [2]) was over 32 µg/mL and the MIC (Staphylococcus aureus [3]) was 4 µg/mL (≈ 1.63 µM). The MIC (Enterococcus gallinarum) was 2 µg/mL (≈ 0.816 µM), the MIC (Salmonella typhimurium) was over 32 µg/mL and the MIC (Enterococcus faecalis) was 8 µg/mL (≈ 3.27 µM). For the same molecule, the MIC (Staphylococcus aureus [4]) was 0.06 µg/mL (≈ 0.0245 µM), the MIC [5] was 1 µg/mL (≈ 0.408 µM) and the MIC (Enterococcus faecium [6]) was 0.5 µg/mL (≈ 0.204 µM). For the same molecule, the MIC (Staphylococcus aureus [7]) was 16 µg/mL (≈ 6.53 µM), the MIC (Enterococcus faecium [8]) was 4 µg/mL (≈ 1.63 µM) and the MIC (Klebsiella pneumoniae) was over 32 µg/mL. The MIC (Staphylococcus aureus [9]) was 4 µg/mL (≈ 1.63 µM), the MIC (Streptococcus pneumoniae) was 1 µg/mL (≈ 0.408 µM) and the Activity (Escherichia coli [10]) was “inactive”. It also gave an MIC (Streptococcus agalactiae) of 4 µg/mL (≈ 1.63 µM).
For `CC[C@H]1OC(=O)[C@H](C)[C@@H](O[C@H]2C[C@@](C)(OC)[C@@H](O)[C@H](C)O2)[C@H](C)[C@@H](O[C@@H]2O[C@H](C)C[C@H](N(C)C)[C@H]2O)[C@](C)(O)C[C@@H](C)C(=O)[C@H](C)[C@@H](O)[C@]1(C)O`, the Activity (Escherichia coli [10]) was “Active”.
In the case of `CC[C@H]1OC(=O)[C@H](C)[C@@H](O[C@H]2C[C@@](C)(OC)[C@@H](OC(=O)NCCNC(=O)[C@H]3NC(=O)[C@H]4NC(=O)[C@H](NC(=O)[C@@H]5NC(=O)C6NC(=O)[C@@H](Cc7ccc(c(Cl)c7)Oc7cc5cc(c7O)Oc5ccc(cc5Cl)[C@H]4O)NC(=O)[C@H](N)c4ccc(O)c(c4)Oc4cc(O)cc6c4)c4ccc(O)c(c4)-c4c(O)cc(O)cc43)[C@H](C)O2)[C@H](C)[C@@H](O[C@@H]2O[C@H](C)C[C@H](N(C)C)[C@H]2O)[C@](C)(O)C[C@@H](C)CN(C)[C@H](C)[C@H]2OC(=O)O[C@]21C`, the MIC (Staphylococcus aureus [1]) is reported as 1 µg/mL (≈ 0.49 µM), the MIC (Escherichia coli [2]) is reported as over 32 µg/mL and the MIC (Staphylococcus aureus [3]) is reported as 1 µg/mL (≈ 0.49 µM). The MIC (Enterococcus gallinarum) was 2 µg/mL (≈ 0.979 µM), the MIC (Salmonella typhimurium) was over 32 µg/mL and the MIC (Enterococcus faecalis) was 16 µg/mL (≈ 7.84 µM). It also gave an MIC (Staphylococcus aureus [4]) of 0.06 µg/mL (≈ 0.0294 µM), an MIC [5] of 0.5 µg/mL (≈ 0.245 µM) and an MIC (Enterococcus faecium [6]) of 0.13 µg/mL (≈ 0.0637 µM). It also gave an MIC (Staphylococcus aureus [7]) of over 32 µg/mL, an MIC (Enterococcus faecium [8]) of 8 µg/mL (≈ 3.92 µM) and an MIC (Klebsiella pneumoniae) of over 32 µg/mL. For the same molecule, the MIC (Staphylococcus aureus [9]) was 32 µg/mL (≈ 15.7 µM), the MIC (Streptococcus pneumoniae) was 0.5 µg/mL (≈ 0.245 µM) and the Activity (Escherichia coli [10]) was “inactive”. It also gave an MIC (Streptococcus agalactiae) of 32 µg/mL (≈ 15.7 µM).
Work on `CN[C@H](CC(C)C)C(=O)N[C@H]1C(=O)N[C@@H](CC(N)=O)C(=O)N[C@H]2C(=O)N[C@H]3C(=O)N[C@H](C(=O)N[C@H](C(=O)O)c4cc(O)cc(O)c4-c4cc3ccc4O)[C@H](O)c3ccc(c(Cl)c3)Oc3cc2cc(c3O[C@@H]2O[C@H](CO)[C@@H](O)[C@H](O)[C@H]2O[C@H]2C[C@](C)(N)[C@H](O)[C@H](C)O2)Oc2ccc(cc2Cl)[C@H]1O` [VANCOMYCIN] yielded a survival at 4.5 mg/kg (Staphylococcus aureus [11]) of 50%, an MIC (Escherichia coli [2]) of over 32 µg/mL and an MIC (Enterococcus gallinarum) of 4 µg/mL (≈ 2.76 µM). For the same molecule, the MIC (Salmonella typhimurium) was over 32 µg/mL, the survival at 2.5 mg/kg (Staphylococcus aureus [12]) was 30% and the MIC (Enterococcus faecalis) was over 32 µg/mL. The MIC (Staphylococcus aureus [4]) was 0.25 µg/mL (≈ 0.173 µM), the MIC [5] was 0.5 µg/mL (≈ 0.345 µM) and the survival at 5.5 mg/kg (Staphylococcus aureus [13]) was 70%. The ED50 (Staphylococcus aureus [14]) was 4.2 mg/kg, the survival at 7.5 mg/kg (Staphylococcus aureus [15]) was 100% and the MIC (Staphylococcus aureus [7]) was 8 µg/mL (≈ 5.52 µM). For the same molecule, the half-life [16] was 6 to 12 h, the MIC (Enterococcus faecium [8]) was over 32 µg/mL and the MIC (Klebsiella pneumoniae) was over 32 µg/mL. It also gave an MIC (Staphylococcus aureus [9]) of 8 µg/mL (≈ 5.52 µM), a survival at 3.5 mg/kg (Staphylococcus aureus [17]) of 40% and an MIC (Streptococcus pneumoniae) of 2 µg/mL (≈ 1.38 µM). For the same molecule, the survival at 6.5 mg/kg (Staphylococcus aureus [18]) was 90% and the MIC (Streptococcus agalactiae) was 8 µg/mL (≈ 5.52 µM).

— ChEMBL document CHEMBL4308894, “Synthesis and evaluation of biological activity for dual-acting antibiotics on the basis of azithromycin and glycopeptides” (Bioorg Med Chem Lett, 2019)
